Experimental data as given in patent EP0946545B1, “NOVEL CARBOXY SUBSTITUTED CYCLIC CARBOXAMIDE DERIVATIVES” (Aventis Pharmaceuticals Inc., priority 1996, dated 1998).
Counter-ions that a name gives are not always drawn. Like-named read-outs stand apart in the source and are kept apart here.

Tests used:
NK1 receptor = biological target: T1, NK1 receptor (Cavia porcellus, UniProt P30547); test: Antagonism of iodinated tachykinin binding to NK1 receptors (Example A); parameters: species or system guinea pig
T1 construct: evaluated in guinea pig lungs (Keystone Biologicals, Cleveland, OH); tissue Keystone Biologicals, Cleveland, OH; host or cells: guinea pig lung membranes
Method: (§1) One skilled in the art can determine the NK1 receptor and NK2 receptor affinity in vitro as follows. The NK1 receptor affinity of tachykinin antagonists is evaluated in guinea pig lungs (Keystone Biologicals, Cleveland, OH) and affinity for the NK2 receptor is evaluated in HSKR-1 cells (which are mouse 3T3 fibroblasts expressing the human jejunal NK2 receptor). Tissues or cells are homogenized with a Polytron in 15 volumes of 50 mM Tris-HC1 buffer (pH 7.4, 4°C) and centrifuged. The pellet is resuspended in Tris-HCl buffer and is centrifuged; the pellet is washed twice by resuspension. The final pellet is resuspended at a concentration of 40 mg/ml for tissues and 20 mg/ml for cells in incubation buffer and remains at room temperature for at least 15 min prior to use. Receptor binding is initiated by addition of 250 ul membrane preparation in duplicate to 0.1 nM of the following radioligands: ^125I-Bolton Hunter Lys-3 labeled substance P and ^125iodohistidyl-1-neurokinin A; in a final volume of 500 ul of buffer containing 50 mM Tris-HCl (pH 7.4 at room temperature), 0.1% bovine serum albumin, 2 mM mangenese chloride, 40 ug/ml bacitracin, 4 µg/ml leupeptin and chymostatin, 10 µM thiorphan and various doses of the putative tachykinin antagonists. Incubations are performed at room temperature for 90 min (NK1 receptor assays) or 2 hr (NK2 receptor assay); binding is terminated by addition of 50 mM Tris-HCl buffer (pH 7.4, 4°C) and filtration under vacuum through GF/B filters presoaked with 0.1% polyethyleneimine (NK1 receptor assays) or 0.5% bovine serum albumin (NK2 receptor assay). Filter bound radioactivity is quantitated in a gamma counter. Nonspecific binding is defined as binding in the presence of 1 µM substance P or neurokinin A. Specific binding is calculated by subtracting nonspecific binding from total binding. Competition of iodinated SP or NKA binding by test compounds or standards is expressed as a percentage of this maximum binding. IC50 values (concentration required to inhibit 50% of receptor binding) are generated for each of the test compounds by nonlinear regression using an iterative curve fitting program (GraphPAD Inplot, San Diego, CA).
(§2) Tackykinin receptor binding (IC50 values) for representative compounds of the present invention is found in Table 1. The values in Table 1 were determined by the method of present Example A and represent the mean of several experiments, except where noted. […]

[1] = biological target: T2, human jejunal NK2 receptor (Homo sapiens, UniProt P21452); test: Antagonism of iodinated tachykinin binding to NK2 receptors (Example A)
T2 construct: expressed in transfected cells; host or cells: HSKR-1 cells (mouse 3T3 fibroblasts)
T2 sequence (P21452 1-398): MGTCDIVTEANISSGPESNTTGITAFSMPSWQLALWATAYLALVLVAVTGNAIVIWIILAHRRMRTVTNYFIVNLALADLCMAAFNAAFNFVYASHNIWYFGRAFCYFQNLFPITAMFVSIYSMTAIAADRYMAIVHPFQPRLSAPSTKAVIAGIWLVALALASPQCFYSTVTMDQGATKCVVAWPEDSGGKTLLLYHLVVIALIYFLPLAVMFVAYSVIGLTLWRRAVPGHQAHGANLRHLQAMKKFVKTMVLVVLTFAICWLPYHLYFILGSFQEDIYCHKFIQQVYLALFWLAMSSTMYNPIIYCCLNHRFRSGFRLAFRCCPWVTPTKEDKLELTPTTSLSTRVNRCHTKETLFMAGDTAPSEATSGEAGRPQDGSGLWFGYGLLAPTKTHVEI
Method: as §1, §2

[2] = read-out: Tachykinin Receptor Binding NK1 IC50, guinea pig lungs membranes, 0.1 nM 125I-Bolton Hunter Lys-3 labeled substance P, 90 min room temperature, mean of several experiments
[3] = read-out: Tachykinin Receptor Binding NK2 IC50, HSKR-1 cells (mouse 3T3 fibroblasts expressing the human jejunal NK2 receptor), 0.1 nM 125iodohistidyl-1-neurokinin A, 2 hr room temperature, mean of several experiments

T1 sequence (P30547 whole entry): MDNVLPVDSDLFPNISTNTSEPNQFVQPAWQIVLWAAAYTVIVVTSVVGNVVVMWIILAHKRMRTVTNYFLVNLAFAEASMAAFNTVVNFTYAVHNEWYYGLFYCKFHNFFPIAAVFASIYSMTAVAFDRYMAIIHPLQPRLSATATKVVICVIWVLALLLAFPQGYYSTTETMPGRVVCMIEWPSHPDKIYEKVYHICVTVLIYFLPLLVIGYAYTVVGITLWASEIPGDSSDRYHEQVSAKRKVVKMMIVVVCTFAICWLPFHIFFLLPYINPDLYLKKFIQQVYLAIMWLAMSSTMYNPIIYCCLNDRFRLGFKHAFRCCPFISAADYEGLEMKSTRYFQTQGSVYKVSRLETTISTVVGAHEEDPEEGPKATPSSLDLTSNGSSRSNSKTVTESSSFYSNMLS

SMILES | IC50 (NK1 receptor) [nM] | IC50 [1] [nM] | IC50 (NK1 receptor; [2]) [nM] | IC50 [1, 3] [nM]
CCOC(=O)CCCN1CCN(C(=O)C2(c3ccccc3)CCN(CC[C@]3(c4ccc(Cl)c(Cl)c4)CCN(C(=O)c4cc(OC)c(OC)c(OC)c4)C3)CC2)CC1 [Example 29.2, (R)-1-(3,4,5-trimethoxybenzoyl)-3-(2-(4-phenyl-4-((4-carboethoxypropylpiperazin-1-yl)carboxamido)piperidine)ethyl)-3-(3,4-dichlorophenyl)pyrrolidine fumaric acid salt] | 11.9 | 3.21 |  | 
CCOC(=O)C1CCN(C(=O)C2(c3ccccc3)CCN(CC[C@]3(c4ccc(Cl)c(Cl)c4)CCN(C(=O)c4cc(OC)c(OC)c(OC)c4)C3)CC2)CC1 [Example 21.1, (R)-1-(3,4,5-Trimethoxybenzoyl)-3-(2-(4-phenyl-4-((4-carboethoxypiperidin-1-yl)carboxamido)piperidin-1-yl)ethyl)-3-(3,4-dichlorophenyl)pyrrolidine] | 10.4 | 2.28 |  | 
COc1cc(C(=O)N2CC[C@](CCN3CCC(C(=O)N4CCN(CC(=O)OCOC(=O)C(C)(C)C)CC4)(c4ccccc4)CC3)(c3ccc(Cl)c(Cl)c3)C2)cc(OC)c1OC [Example 32.2, (R)-1-(3,4,5-trimethoxybenzoyl)-3-(2-(4-phenyl-4-((4-carbo(t-butylcarbonyloxymethoxy)methylpiperazin-1-yl)carboxamido)piperidine)ethyl)-3-(3,4-dichlorophenyl)pyrrolidine fumaric acid salt] |  |  | 21.2 | 13.9
COc1cc(C(=O)N2CC[C@](CCN3CCC(C(=O)N4CCC(C(=O)O)CC4)(c4ccccc4)CC3)(c3ccc(Cl)c(Cl)c3)C2)cc(OC)c1OC [Example 22.1, (R)-1-(3,4,5-trimethoxybenzoyl)-3-(2-(4-phenyl-4-((4-carboxypiperidin-1-yl)carboxamido)piperidin-1-yl)ethyl)-3-(3,4-dichlorophenyl)pyrrolidine hydrochloric acid salt] | 4.05 | 6.29 |  | 
CCN(CC)C(=O)COC(=O)CN1CCN(C(=O)C2(c3ccccc3)CCN(CC[C@]3(c4ccc(Cl)c(Cl)c4)CCN(C(=O)c4cc(OC)c(OC)c(OC)c4)C3)CC2)CC1 [Example 33.2, (R)-1-(3,4,5-trimethoxybenzoyl)-3-(2-(4-phenyl-4-((4-carbo(N,N-diethylcarboxamidomethoxy)methylpiperazin-1-yl)carboxamido)piperidine)ethyl)-3-(3,4-dichlorophenyl)pyrrolidine fumaric acid salt] |  |  | 3.95 | 2.43
COc1ccc(-n2cnnn2)cc1C(=O)N1CC[C@](CCN2CCC(C(=O)N3CCN(CC(=O)O)CC3)(c3ccccc3)CC2)(c2ccc(Cl)c(Cl)c2)C1 [Example 11.1, (R)-1-(2-methoxy-5-(1H-tetrazol-1-yl)benzoyl)-3-(2-(4-phenyl-4-((4-carboxymethylpiperazin-1-yl)carboxamido)piperidin-1-yl)ethyl)-3-(3,4-dichlorophenyl)pyrrolidine hydrochloric acid salt] | 10.5 | 70.7 |  | 
CCOC(=O)CCN1CCN(C(=O)C2(c3ccccc3)CCN(CC[C@]3(c4ccc(Cl)c(Cl)c4)CCN(C(=O)c4cc(OC)c(OC)c(OC)c4)C3)CC2)CC1 [Example 27.3, (R)-1-(3,4,5-trimethoxvbenzoyl)-3-(2-(4-phenyl-4-((4-carboethoxyethylpiperazin-1-yl)carboxamido)piperidine)ethyl)-3-(3,4-dichlorophenyl)pyrrolidine hydrochloric acid salt] | 9.1 | 2.34 |  | 
COc1cc(C(=O)N2CC[C@](CCN3CCC(C(=O)N4CCN(CCC(=O)O)CC4)(c4ccccc4)CC3)(c3ccc(Cl)c(Cl)c3)C2)cc(OC)c1OC [Example 28.2, (R)-1-(3,4,5-trimethoxybenzoyl)-3-(2-(4-phenyl-4-((4-carboxyethylpiperazin-1-yl)carboxamido)piperidine)ethyl)-3-(3,4-dichlorophenyl)pyrrolidine hydrochloric acid salt] | 19.6 | 3.73 |  | 
